We go through 5 compounds from patent US20260295053A1, “COMPOUNDS FOR DEGRADATION AND INHIBITION OF KRAS (G12D) PROTEIN” (Shenzhen Ionova Life Science Co., Ltd., priority 2023, published 2026).

As a reminder, the IC50 is the concentration that gives 50% inhibition. For orientation: DC50 means the concentration at which degradation of the target reaches its halfway point. A low value points to degradation at low concentration.

The test system of test [1] is AsPC-1 cells. Put plainly: AsPC-1 cell proliferation assay (CellTiter Glo). Format: cell-based. To be noted: 6 days. The method in brief:
(§1)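 Read-outs were KRAS G12D immunofluorescence against β-actin after 24 h (DC50) and CellTiter Glo luminescence after 6 days (IC50). Compounds were titrated 1:3 from […] to 1.5 nM final on AsPC-1 cells at 37 °C, 5% CO2.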
For orientation: Cellular ATP, detected with luciferase, serves as a proxy for viable cell number.

Test [2] has as its target T1, KRAS (G12D) (Homo sapiens, UniProt P01116, G12D).
T1 construct: in-cell western with KRAS G12D antibody after 24 h
Put plainly: KRAS (G12D) cellular degradation assay in AsPC-1 cells. To be noted: 24 hours, antibody fluorescence (Odyssey CLX), DC50 half-maximal degradation concentration. Format: cell-based. The method in brief: as §1

SMILES strings stand for the structures.

T1 sequence (P01116 1-188 isoform P01116-2 G12D): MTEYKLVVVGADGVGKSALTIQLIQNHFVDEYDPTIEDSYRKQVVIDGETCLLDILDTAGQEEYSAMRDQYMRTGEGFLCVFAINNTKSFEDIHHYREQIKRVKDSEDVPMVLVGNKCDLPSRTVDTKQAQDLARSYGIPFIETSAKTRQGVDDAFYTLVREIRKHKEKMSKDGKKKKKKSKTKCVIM

`CO[C@@H](C)COc1nc(N(C)[C@H]2CCNC2)c2cc(C3CC3)c(-c3c(C)c(F)cc4[nH]ncc34)c(OCc3ccc(-c4cn([C@H](C(=O)N5C[C@H](O)C[C@H]5C(=O)N[C@H](c5ccc(-c6scnc6C)cc5)[C@H](C)O)C(C)C)nn4)cc3)c2n1` [Example 144, (2S,4R)-1-((2S)-2-(4-(4-(((6-cyclopropyl-7-(6-fluoro-5-methyl-1H-indazol-4-yl)-2-((S)-2-methoxypropoxy)-4-(methyl((S)-pyrrolidin-3-yl)amino)quinazolin-8-yl)oxy)methyl)phenyl)-1H-1,2,3-triazol-1-yl)-3-methylbutanoyl)-4-hydroxy-N-((1R,2S)-2-hydroxy-1-(4-(4-methylthiazol-5-yl)phenyl)propyl)pyrrolidine-2-carboxamide] displayed an IC50 in test [1] above 1000 nM. In test [2], this compound returned a DC50 above 1000 nM.
The compound `CCn1nccc1-c1ccc([C@H](CO)NC(=O)[C@@H]2C[C@@H](O)CN2C(=O)[C@H](C(C)C)n2cc(-c3ccc(COc4c(-c5c(C)c(F)cc6[nH]ncc56)c(C5CC5)cc5c(N6CCNCC[C@H]6C)nc(OC[C@H](C)OC)nc45)cc3)nn2)cc1` [Example 178, (2S,4R)-1-((2S)-2-(4-(4-(((6-cyclopropyl-7-(6-fluoro-5-methyl-1H-indazol-4-yl)-2-((S)-2-methoxypropoxy)-4-((R)-7-methyl-1,4-diazepan-1-yl)quinazolin-8-yl)oxy)methyl)phenyl)-1H-1,2,3-triazol-1-yl)-3-methylbutanoyl)-N—((R)-1-(4-(1-ethyl-1H-pyrazol-5-yl)phenyl)-2-hydroxyethyl)-4-hydroxypyrrolidine-2-carboxamide] displayed an IC50 in test [1] below 10 nM. Besides, in test [2], the DC50 is below 10 nM.
`CO[C@@H](C)COc1nc(N2CCNCC[C@H]2C)c2cc(C3CC3)c(-c3c(C)c(F)cc4[nH]ncc34)c(OCc3ccc(-c4cn([C@H](C(=O)N5C[C@H](O)C[C@H]5C(=O)N[C@H](c5ccc(-c6scnc6C)cc5)[C@H](C)O)C(C)C)nn4)cc3)c2n1` [Example 190, (2S,4R)-1-((2S)-2-(4-(4-(((6-cyclopropyl-7-(6-fluoro-5-methyl-1H-indazol-4-yl)-2-((S)-2-methoxypropoxy)-4-((R)-7-methyl-1,4-diazepan-1-yl)quinazolin-8-yl)oxy)methyl)phenyl)-1H-1,2,3-triazol-1-yl)-3-methylbutanoyl)-4-hydroxy-N-((1R,2S)-2-hydroxy-1-(4-(4-methylthiazol-5-yl)phenyl)propyl)pyrrolidine-2-carboxamide] yielded an IC50 in test [1] (Homo sapiens, ASPC1, 144 h) below 10 nM. In test [2], this compound yielded a DC50 below 10 nM.
The compound `CCn1nccc1-c1ccc([C@H](CO)NC(=O)[C@@H]2C[C@@H](O)CN2C(=O)[C@H](C(C)C)n2cc(-c3ccc(COc4c(-c5c(C)c(F)cc6[nH]ncc56)c(C5CC5)cc5c(N6CC7CCC(C6)N7)nc(OC[C@H](C)OC)nc45)cc3)nn2)cc1` (single isomer, unassigned) [Example 8] showed an IC50 in test [1] of 10 to 100 nM. The compound further returned a DC50 in test [2] of 10 to 100 nM.
For the compound `COC1CCC(Oc2nc(N3C[C@@H]4C[C@H]3CN4)c3cc(C4CC4)c(-c4c(C)c(F)c(F)c5[nH]ncc45)c(OCc4ccc(-c5cn([C@H](C(=O)N6C[C@H](O)C[C@H]6C(=O)N[C@@H](CO)c6ccc(-c7scnc7C)cc6)C(C)C)nn5)cc4)c3n2)CC1` (stereo partly drawn) [Example 103, (2S,4R)-1-((2S)-2-(4-(4-(((4-((1S,4S)-2,5-diazabicyclo[2.2.1]heptan-2-yl)-6-cyclopropyl-7-(6,7-difluoro-5-methyl-1H-indazol-4-yl)-2-(((1s,4R)-4-methoxycyclohexyl)oxy)quinazolin-8-yl)oxy)methyl)phenyl)-1H-1,2,3-triazol-1-yl)-3-methylbutanoyl)-4-hydroxy-N—((R)-2-hydroxy-1-(4-(4-methylthiazol-5-yl)phenyl)ethyl)pyrrolidine-2-carboxamide], in test [1] (Homo sapiens, ASPC1, 144 h), the concentration for half-maximal inhibition (IC50) was below 10 nM. Moreover, the 50% degradation concentration (DC50) in test [2] was in the range of 10 to 100 nM.
